Measurements reported in US8481459B2, “Chemical inhibitors of ethylene biosynthesis” (Academia Sinica, priority 2010, dated 2013).

Test system: gene expression in etiolated eto1-4 seedlings
Test: Transcriptional profiling (ATH1 GeneChip microarray) of etiolated eto1-4 seedlings
Format: in vivo, Arabidopsis thaliana
Details: ratio eto1-4 treated to eto1-4 (no treatment)
Description: For chemical treatments, seeds were sown on 0.5×MS agar medium supplemented with 10 μM chemicals (AVG, compounds 9393, 9370, and 7303) or DMSO (as control). Arabidopsis seeds were stratified in the dark at 4° C. for 4 days, then germinated in the dark for 3 days at 22° C. Approximately 2,000 etiolated seedlings of the wild type or eto1-4 were used to collect tissues for preparation of total RNA in each microarray experiment with Arabidopsis ATH1 GeneChip (Affymetrix). Extraction of RNA followed an established protocol (Chang, et al. (1993) Plant Mol. Biol. Rep. 11, 113-117). Total RNA (10 μg) was used to prepare biotinylated cRNA for hybridization to ATH1 GeneChip in the experiments disclosed herein. Experiments were repeated by 2 independent biological duplicates, and candidate genes present in both experiments were selected for further analysis. The MASS method was used for data analysis and normalization by all sample medium. Candidate genes were selected by the following criteria. First, genes with 1.5-fold differential expression between the wild type and eto1-4 were selected as the master gene pool, which was then used for comparison in treatments with AVG and individual exemplary compounds. Data were presented in hierarchical clustering and Venn diagram format. Agilent GeneSpring GX and Bioconductor software were used to analyze the expression profile data. Gene Ontology descriptions were generated by GeneSpring GX and further referred to the TAR GO database. Raw data are available in the GEO database (http://www.ncbi.nlm.nih.gov/geo) with Accession no. GSE20897.
The filtered and normalized expression data set from 22810 probes on the ATH1 Genechip was used for hierarchical clustering of gene expression profiles for comparison between AVG and the exemplary invention compounds in eto1-4. It was identified that 1,446 genes show at least 1.5-fold difference in expression between the WT and eto1-4 and used them as the master gene pool for clustering analysis (FIG. 7A). […] These genes likely contribute to the etiolated phenotype of eto1-4 by responding to elevated endogenous ethylene. To determine whether the exemplary compounds have specific r overlapping functions with AVG to suppress the eto1-4 phenotype, genes that are regulated by individual exemplary invention compounds and AVG for Venn diagram analysis were clustered (FIG. 7B). More than 63% of genes (356/561 for compound 9393; 389/561 for compound 9370; 399/561 for compound 7303; FIG. 7B) with expression associated with AVG were co-regulated by the exemplary invention compounds, which indicates an overlap function in suppression of the ethylene phenotype in eto1-4. […] Next genes co-regulated by all of the exemplary invention compounds and AVG were examined by performing a clustering analysis using the co-regulated genes identified in FIG. 7B: 356 (compound 9393 vs AVG), 389 (compound 9370 vs AVG) and 399 genes (compound 7303 vs AVG). It was uncovered that 276 genes were co-regulated by all of the exemplary invention compounds and AVG (FIG. 7C and Table 2). On the basis of GO descriptions generated by Gene Spring GX and TAIR database, the 276 genes were divided into subgroups related to their biological functions (Table 2). […] In addition, stress- and pathogenesis-related genes were among the co-regulated genes, possibly because ethylene is involved in both biotic and abiotic stresses.
Genes (1446 non-redundant loci) were selected by 1.5-fold differential expression between eto1-4 and WT as the master pool for analysis. These genes were used for comparison between chemical treatments by AVG and the exemplary invention compounds. The finalized 276 genes that are co-regulated by AVG and all of the exemplary invention compounds are shown. Locus ID also present in Nemhauser et al. (Nemhauser, et al. (2006) Cell 126, 467-475).

SMILES: Cc1ccc(C2CC(=O)c3cnc(NC4CCCC4)nc3C2)cc1 (centres unmarked) [Compound 9370]
- Signal Fold Change AT3G14850, unknown biological function: 0.20
- Signal Fold Change AT3G15890 protein kinase: 1.86
- Signal Fold Change AT3G16450 jacalin lectin protein: 2.54
- Signal Fold Change AT3G16470 jacalin lectin protein: 5.60
- Signal Fold Change AT3G16690, unknown biological function: 3.80
- Signal Fold Change AT3G17680, unknown biological function: 0.24
- Signal Fold Change AT3G20130 cytochrome P450: 1.73
- Signal Fold Change AT3G21770 peroxidase 30: 2.01
- Signal Fold Change AT3G22620 lipid transfer protein: 2.14
- Signal Fold Change AT3G23150 ethylene receptor, putative (ETR2): 0.16
- Signal Fold Change AT3G23800, unknown biological function: 0.40
- Signal Fold Change AT3G24670, unknown biological function: 0.32
- Signal Fold Change AT3G25710 bHLH protein: 2.47
- Signal Fold Change AT3G25730 AP2-containing transcription factor: 0.30
- Signal Fold Change AT3G25980 mitotic spindle checkpoint protein: 2.23
- Signal Fold Change AT3G27580 protein kinase: 0.56
- Signal Fold Change AT3G28290, unknown biological function: 0.18
- Signal Fold Change AT3G29250 short-chain dehydrogenase: 5.52
- Signal Fold Change AT3G30775 proline oxidase, mitochondrial: 3.13
- Signal Fold Change AT3G43270 pectinesterase protein: 0.20
- Signal Fold Change AT3G44820, response to light stimulus, phototropic-responsive NPH3 protein: 2.56
- Signal Fold Change AT3G44990 endo-xyloglucan transferase: 0.22
- Signal Fold Change AT3G45710 proton-dependent oligopeptide transport (POT) protein: 2.40
- Signal Fold Change AT3G46130 myb transcription factor (MYB48): 2.15
- Signal Fold Change AT3G46700 UDP-glucosyl transferase: 5.15
- Signal Fold Change AT3G47210, unknown biological function: 2.73
- Signal Fold Change AT3G47250, unknown biological function: 4.89
- Signal Fold Change AT3G49780 phytosulfokines 3 (PSK3): 7.46
- Signal Fold Change AT3G50660 steroid 22-alpha-hydroxylase: 4.00
- Signal Fold Change AT3G51410, unknown biological function: 0.32
- Signal Fold Change AT3G51970, unknown biological function: 2.88
- Signal Fold Change AT3G52180 protein tyrosine phosphatase: 0.25
- Signal Fold Change AT3G52920 expressed protein (defense response): 2.82
- Signal Fold Change AT3G53540, unknown biological function: 0.35
- Signal Fold Change AT3G56480, unknown biological function: 2.39
- Signal Fold Change AT3G58710 WRKY transcription factor: 2.65
- Signal Fold Change AT3G59370, unknown biological function: 2.99
- Signal Fold Change AT3G59710 short-chain dehydrogenase: 0.38
- Signal Fold Change AT3G59900, unknown biological function: 0.39
- Signal Fold Change AT3G60520, unknown biological function: 0.28
- Signal Fold Change AT3G61160 shaggy-related protein kinase beta/ASK-beta (ASK2): 3.86
- Signal Fold Change AT4G00730 anthocyaninless2: 0.54
- Signal Fold Change AT4G01410, unknown biological function: 0.27
- Signal Fold Change AT4G03140 short-chain dehydrogenase: 0.38
- Signal Fold Change AT4G08300, unknown biological function: 3.20
- Signal Fold Change AT4G09570 calcium-dependent protein kinase: 0.35
- Signal Fold Change AT4G10910, unknown biological function: 4.65
- Signal Fold Change AT4G11190 disease resistance-responsive protein: 9.98
- Signal Fold Change AT4G11280 ACC synthase 6: 2.29
- Signal Fold Change AT4G11310 cysteine proteinase: 9.04
- Signal Fold Change AT4G12080, unknown biological function: 2.05
- Signal Fold Change AT4G12410 auxin-responsive protein: 2.89
- Signal Fold Change AT4G12480 lipid transfer protein: 0.17
- Signal Fold Change AT4G13210, unknown biological function: 0.25
- Signal Fold Change AT4G15550 UDP-glucose:indole-3-acetate beta-D-glucosyltransferase: 0.28
- Signal Fold Change AT4G15920, unknown biological function: 17.08
- Signal Fold Change AT4G17220 expressed protein (cytoskeleton organization and biogenesis): 2.35
- Signal Fold Change AT4G18340 glycosyl hydrolase: 2.70
- Signal Fold Change AT4G23410 senescence-associated protein: 2.34
- Signal Fold Change AT4G25780, unknown biological function: 11.52
- Signal Fold Change AT4G26010 peroxidase: 0.38
- Signal Fold Change AT4G28085, unknown biological function: 4.84
- Signal Fold Change AT4G31000, unknown biological function: 0.61
- Signal Fold Change AT4G32920, unknown biological function: 2.35
- Signal Fold Change AT4G34560, unknown biological function: 1.85
- Signal Fold Change AT4G34760 auxin-responsive protein: 0.15
- Signal Fold Change AT4G35060 copper chaperone: 3.80
- Signal Fold Change AT4G35150, unknown biological function: 0.28
- Signal Fold Change AT4G36520, unknown biological function: 2.70
- Signal Fold Change AT4G37220 stress-responsive protein: 6.12
- Signal Fold Change AT4G38690, signal transduction, 1-phosphatidylinositol: 3.04
- Signal Fold Change AT4G39210 ADP-glucose pyrophosphorylase: 0.28
- Signal Fold Change AT4G39800 inositol-3-phosphate synthase isozyme 1: 2.08
- Signal Fold Change AT4G39840, unknown biological function: 0.29
- Signal Fold Change AT5G01210, unknown biological function: 0.31
- Signal Fold Change AT5G01300, unknown biological function: 1.40
- Signal Fold Change AT5G02260, cell wall organization and biogenesis, expansin (EXP9): 0.10
- Signal Fold Change AT5G02540 short-chain dehydrogenase: 0.12
- Signal Fold Change AT5G03160 DNAJ heat shock N-terminal domain-containing protein: 2.78
- Signal Fold Change AT5G04080, unknown biological function: 2.55
- Signal Fold Change AT5G05180, unknown biological function: 1.95
- Signal Fold Change AT5G06200, unknown biological function: 2.10
- Signal Fold Change AT5G08240, unknown biological function: 2.31
- Signal Fold Change AT5G08260 serine carboxypeptidase S10 protein: 0.38
- Signal Fold Change AT5G08370 alpha-galactosidase: 4.06
- Signal Fold Change AT5G09980 expressed protein (defense response): 0.38
- Signal Fold Change AT5G10720 sensory transduction histidine kinase: 0.32
- Signal Fold Change AT5G11540, unknown biological function: 5.68
- Signal Fold Change AT5G12170, response to cadmium ion, expressed protein: 0.34
- Signal Fold Change AT5G13870 endo-xyloglucan transferase: 0.11
- Signal Fold Change AT5G13910 AP2/EREBP-like transcription factor: 0.39
- Signal Fold Change AT5G14780 formate dehydrogenase: 0.35
- Signal Fold Change AT5G14920 gibberellin-regulated protein: 0.31
- Signal Fold Change AT5G15290, unknown biological function: 2.42
- Signal Fold Change AT5G15530 biotin carboxyl carrier protein 2: 0.38
- Signal Fold Change AT5G15830 bZIP transcription factor protein: 4.18
- Signal Fold Change AT5G18470, unknown biological function: 0.18
- Signal Fold Change AT5G18670 beta-amylase: 0.40
- Signal Fold Change AT5G18860, unknown biological function: 2.08
- Signal Fold Change AT5G18970, unknown biological function: 3.58
- Signal Fold Change AT5G19890 peroxidase: 0.08
- Signal Fold Change AT5G19930, unknown biological function: 1.64
- Signal Fold Change AT5G20410 monogalactosyldiacylglycerol synthase: 3.75
- Signal Fold Change AT5G22310, unknown biological function: 0.31
- Signal Fold Change AT5G22860 serine carboxypeptidase S28 protein: 3.54
- Signal Fold Change AT5G23750, unknown biological function: 4.16
- Signal Fold Change AT5G24870, unknown biological function: 2.17
- Signal Fold Change AT5G25140 cytochrome P450: 5.04
- Signal Fold Change AT5G25160 zinc finger (C2H2 type) protein: 3.03
- Signal Fold Change AT5G25190 ethylene-responsive element-binding protein: 0.40
- Signal Fold Change AT5G34940, unknown biological function: 0.46
- Signal Fold Change AT5G37300, unknown biological function: 3.03
- Signal Fold Change AT5G38930, unknown biological function: 0.24
- Signal Fold Change AT5G39860 bHLH protein: 3.46
- Signal Fold Change AT5G41900 hydrolase: 3.08
- Signal Fold Change AT5G44410, unknown biological function: 3.27
- Signal Fold Change AT5G44580, unknown biological function: 0.21
- Signal Fold Change AT5G46890 lipid transfer protein: 3.94
- Signal Fold Change AT5G47240, unknown biological function: 4.32
- Signal Fold Change AT5G47330 palmitoyl protein thioesterase protein: 3.02
- Signal Fold Change AT5G47450 major intrinsic protein: 2.71
- Signal Fold Change AT5G47950, unknown biological function: 2.55
- Signal Fold Change AT5G48490 lipid transfer protein: 12.97
- Signal Fold Change AT5G48900, unknown biological function: 0.48
- Signal Fold Change AT5G49900, unknown biological function: 2.96
- Signal Fold Change AT5G50720 ABA-responsive protein (HVA22e): 2.65
- Signal Fold Change AT5G52120 SKP1 interacting partner 3 protein: 7.26
- Signal Fold Change AT5G53190, unknown biological function: 6.92
- Signal Fold Change AT5G53830, unknown biological function: 0.39
- Signal Fold Change AT5G56320, cell wall organization and biogenesis, expansin (EXP14): 2.90
- Signal Fold Change AT5G58660, unknown biological function: 0.27
- Signal Fold Change AT5G59540 oxidoreductase: 0.40
- Signal Fold Change AT5G63450 cytochrome P450: 8.71
- Signal Fold Change AT5G63650 serine/threonine protein kinase: 0.33
- Signal Fold Change AT5G65970 seven transmembrane MLO protein: 2.88
- Signal Fold Change AT5G66310, microtubule-based movement, kinesin motor protein: 0.45
- Signal Fold Change AT5G66400 dehydrin (RAB18): 0.81
- Signal Fold Change AT5G66440, unknown biological function: 0.31
- Signal Fold Change AT5G66460 (1-4)-beta-mannan endohydrolase: 0.42
- Signal Fold Change AT5G66780, unknown biological function: 0.86
